Assay results: PMC5862616 (Oncotarget, 2018)
“Also recorded” adds a separate entry of the source.

Assays:
KM-12 cells [1] = test: KM-12 anchorage dependent cell proliferation (CellTiter-Glo); type: cell-based; settings: read-out: IC50 KM-12 cell proliferation (anchorage dependent)
TEK (TIE2) = TEK (TIE2) (Homo sapiens, UniProt Q02763); test: scanMAX kinase panel
KM-12 cells [2] = test: KM-12 anchorage independent growth in alginate; type: cell-based; settings: alginate, 72 hours, colony formation, read-out: IC50 KM-12 anchorage independent growth
MET = MET (Homo sapiens, UniProt P08581); test: scanMAX kinase panel
Chain of MET (P08581 25-1390): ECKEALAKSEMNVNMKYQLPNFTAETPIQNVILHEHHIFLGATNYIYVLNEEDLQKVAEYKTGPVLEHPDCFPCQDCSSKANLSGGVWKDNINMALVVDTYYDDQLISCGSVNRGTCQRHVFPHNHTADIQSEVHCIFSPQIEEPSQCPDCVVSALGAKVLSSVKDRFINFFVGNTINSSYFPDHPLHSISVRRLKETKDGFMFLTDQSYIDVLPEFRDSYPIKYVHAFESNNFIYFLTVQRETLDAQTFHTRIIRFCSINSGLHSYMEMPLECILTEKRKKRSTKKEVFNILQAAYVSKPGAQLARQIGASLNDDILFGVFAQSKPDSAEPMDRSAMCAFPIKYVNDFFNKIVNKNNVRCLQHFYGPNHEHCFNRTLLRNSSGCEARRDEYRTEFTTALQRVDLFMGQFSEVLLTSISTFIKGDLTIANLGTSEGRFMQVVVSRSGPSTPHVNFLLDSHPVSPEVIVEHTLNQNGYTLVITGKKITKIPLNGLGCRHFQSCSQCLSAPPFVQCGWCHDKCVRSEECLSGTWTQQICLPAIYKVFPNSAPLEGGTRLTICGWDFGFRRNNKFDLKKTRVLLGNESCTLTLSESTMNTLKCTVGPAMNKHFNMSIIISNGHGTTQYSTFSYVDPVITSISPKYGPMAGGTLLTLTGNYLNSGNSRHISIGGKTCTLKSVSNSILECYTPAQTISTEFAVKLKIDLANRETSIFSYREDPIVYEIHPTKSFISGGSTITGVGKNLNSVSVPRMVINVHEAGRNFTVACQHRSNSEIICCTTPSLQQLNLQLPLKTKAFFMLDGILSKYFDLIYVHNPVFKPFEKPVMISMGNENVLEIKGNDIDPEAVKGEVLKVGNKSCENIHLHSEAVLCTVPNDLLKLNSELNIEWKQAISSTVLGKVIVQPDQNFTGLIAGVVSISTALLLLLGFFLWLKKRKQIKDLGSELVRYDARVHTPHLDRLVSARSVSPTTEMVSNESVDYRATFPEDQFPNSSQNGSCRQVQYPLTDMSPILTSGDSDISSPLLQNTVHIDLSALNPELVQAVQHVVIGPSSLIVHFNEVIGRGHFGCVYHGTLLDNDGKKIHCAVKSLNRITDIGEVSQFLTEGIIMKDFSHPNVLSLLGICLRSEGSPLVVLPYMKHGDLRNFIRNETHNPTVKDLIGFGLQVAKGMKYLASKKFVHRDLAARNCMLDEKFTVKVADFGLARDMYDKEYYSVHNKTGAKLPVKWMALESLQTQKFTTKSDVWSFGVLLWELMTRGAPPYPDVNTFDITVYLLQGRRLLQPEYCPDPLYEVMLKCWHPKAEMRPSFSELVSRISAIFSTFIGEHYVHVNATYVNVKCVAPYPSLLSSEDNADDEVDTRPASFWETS

VEGFR2 = VEGFR2 (Homo sapiens, UniProt P35968); test: scanMAX kinase panel
Chain of VEGFR2 (P35968 20-1356): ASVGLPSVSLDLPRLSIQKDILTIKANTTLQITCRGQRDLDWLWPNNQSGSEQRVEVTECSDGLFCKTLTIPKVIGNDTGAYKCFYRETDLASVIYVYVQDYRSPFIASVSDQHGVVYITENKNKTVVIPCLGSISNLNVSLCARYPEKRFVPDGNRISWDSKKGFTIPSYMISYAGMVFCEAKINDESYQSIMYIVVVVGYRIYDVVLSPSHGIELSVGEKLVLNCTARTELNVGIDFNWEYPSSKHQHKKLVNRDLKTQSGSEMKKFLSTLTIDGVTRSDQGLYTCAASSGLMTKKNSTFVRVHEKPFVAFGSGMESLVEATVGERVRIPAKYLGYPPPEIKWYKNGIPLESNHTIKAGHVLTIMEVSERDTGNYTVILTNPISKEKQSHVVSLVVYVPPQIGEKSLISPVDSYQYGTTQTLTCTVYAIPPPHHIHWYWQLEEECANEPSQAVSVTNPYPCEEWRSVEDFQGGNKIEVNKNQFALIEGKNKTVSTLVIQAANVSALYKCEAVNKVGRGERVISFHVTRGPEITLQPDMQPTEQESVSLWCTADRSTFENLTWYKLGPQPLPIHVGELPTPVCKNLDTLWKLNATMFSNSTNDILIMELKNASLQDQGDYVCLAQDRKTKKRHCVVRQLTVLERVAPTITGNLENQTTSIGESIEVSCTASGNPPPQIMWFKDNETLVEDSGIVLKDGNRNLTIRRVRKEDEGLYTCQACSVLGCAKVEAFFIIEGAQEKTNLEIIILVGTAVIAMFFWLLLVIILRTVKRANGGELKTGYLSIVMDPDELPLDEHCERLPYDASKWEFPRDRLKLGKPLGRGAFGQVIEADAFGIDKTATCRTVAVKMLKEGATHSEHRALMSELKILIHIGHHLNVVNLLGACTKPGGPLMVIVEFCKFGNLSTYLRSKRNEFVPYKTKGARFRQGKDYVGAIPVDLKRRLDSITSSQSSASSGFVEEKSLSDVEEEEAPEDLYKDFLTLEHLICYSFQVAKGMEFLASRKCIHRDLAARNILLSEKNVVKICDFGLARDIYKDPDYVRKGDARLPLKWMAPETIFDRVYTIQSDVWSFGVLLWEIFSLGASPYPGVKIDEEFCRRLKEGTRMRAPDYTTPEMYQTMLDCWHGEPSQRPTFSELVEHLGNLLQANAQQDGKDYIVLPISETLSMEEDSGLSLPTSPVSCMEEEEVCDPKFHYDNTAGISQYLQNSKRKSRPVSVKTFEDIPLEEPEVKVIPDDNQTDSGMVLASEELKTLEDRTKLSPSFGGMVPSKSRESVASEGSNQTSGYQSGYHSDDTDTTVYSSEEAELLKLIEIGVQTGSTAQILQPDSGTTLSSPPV

[3] = system: MKNK1/2 (p-eIF4E S209) in KM-12 cells; test: Western blot of p-eIF4E S209 in KM-12 cells; type: cell-based; settings: KM-12 cells, 2 hours, western blot; for p-eIF4E reduction (MKNK1/2 inhibition, in words): b12: 100, 500, 1000 nM
Procedure: 20 μg NTRK1 fusion confirmation
T20 (ThermoScientific, Rockford, IL) for 30 minutes. MiniPrep cat# R2051 following manufacturer ’s protocol. […]
(1:2000) (Sigma-Aldrich), HRP-conjugated mouse or primers. The primer sequences are TPM3_Ex3B_F5:
Chalfont, UK). All western blots were developed using Ex12_R5: […]. PCR was […]

MKNK2 = MKNK2 (Homo sapiens, UniProt Q9HBH9); test: scanMAX kinase panel
Chain of MKNK2 (Q9HBH9 whole entry): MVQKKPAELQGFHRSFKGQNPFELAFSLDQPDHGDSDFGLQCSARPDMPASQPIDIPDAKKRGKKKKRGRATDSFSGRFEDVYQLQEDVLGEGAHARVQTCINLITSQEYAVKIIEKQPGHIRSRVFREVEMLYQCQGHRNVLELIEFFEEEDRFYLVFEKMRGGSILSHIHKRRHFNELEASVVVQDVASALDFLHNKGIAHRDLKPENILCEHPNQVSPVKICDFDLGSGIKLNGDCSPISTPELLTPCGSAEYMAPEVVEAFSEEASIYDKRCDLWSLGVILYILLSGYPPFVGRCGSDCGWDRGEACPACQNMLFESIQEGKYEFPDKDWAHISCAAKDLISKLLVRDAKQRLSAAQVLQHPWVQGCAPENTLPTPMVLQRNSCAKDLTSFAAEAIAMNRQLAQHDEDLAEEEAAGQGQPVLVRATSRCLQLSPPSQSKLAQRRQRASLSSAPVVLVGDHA

DDR2 = target: T1, DDR2 (Homo sapiens, UniProt Q16832); test: scanMAX kinase panel
T1 sequence (Q16832 22-855): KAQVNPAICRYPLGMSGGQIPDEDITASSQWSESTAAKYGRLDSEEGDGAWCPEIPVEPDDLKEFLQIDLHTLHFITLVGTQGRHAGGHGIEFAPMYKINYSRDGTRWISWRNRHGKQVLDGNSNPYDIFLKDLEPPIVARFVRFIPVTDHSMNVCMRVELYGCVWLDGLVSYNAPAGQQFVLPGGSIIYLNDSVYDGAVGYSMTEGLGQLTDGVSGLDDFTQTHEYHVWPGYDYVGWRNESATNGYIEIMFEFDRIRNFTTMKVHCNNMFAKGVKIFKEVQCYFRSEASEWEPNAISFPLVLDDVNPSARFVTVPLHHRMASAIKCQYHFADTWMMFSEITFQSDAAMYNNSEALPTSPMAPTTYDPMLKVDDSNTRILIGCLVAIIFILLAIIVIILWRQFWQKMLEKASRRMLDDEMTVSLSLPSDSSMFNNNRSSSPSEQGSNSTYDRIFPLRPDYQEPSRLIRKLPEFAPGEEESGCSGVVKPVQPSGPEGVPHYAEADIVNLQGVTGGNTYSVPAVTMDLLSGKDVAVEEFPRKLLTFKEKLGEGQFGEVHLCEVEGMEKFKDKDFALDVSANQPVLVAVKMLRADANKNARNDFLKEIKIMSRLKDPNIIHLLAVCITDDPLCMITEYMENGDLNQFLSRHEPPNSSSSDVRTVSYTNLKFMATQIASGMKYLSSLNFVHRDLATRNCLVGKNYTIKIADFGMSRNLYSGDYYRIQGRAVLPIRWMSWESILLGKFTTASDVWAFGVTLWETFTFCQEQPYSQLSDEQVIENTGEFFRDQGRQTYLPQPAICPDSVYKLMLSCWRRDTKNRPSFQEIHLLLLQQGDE

FLT3 = target: T2, FLT3 (Homo sapiens, UniProt P36888); test: scanMAX kinase panel
T2 sequence (P36888 27-993): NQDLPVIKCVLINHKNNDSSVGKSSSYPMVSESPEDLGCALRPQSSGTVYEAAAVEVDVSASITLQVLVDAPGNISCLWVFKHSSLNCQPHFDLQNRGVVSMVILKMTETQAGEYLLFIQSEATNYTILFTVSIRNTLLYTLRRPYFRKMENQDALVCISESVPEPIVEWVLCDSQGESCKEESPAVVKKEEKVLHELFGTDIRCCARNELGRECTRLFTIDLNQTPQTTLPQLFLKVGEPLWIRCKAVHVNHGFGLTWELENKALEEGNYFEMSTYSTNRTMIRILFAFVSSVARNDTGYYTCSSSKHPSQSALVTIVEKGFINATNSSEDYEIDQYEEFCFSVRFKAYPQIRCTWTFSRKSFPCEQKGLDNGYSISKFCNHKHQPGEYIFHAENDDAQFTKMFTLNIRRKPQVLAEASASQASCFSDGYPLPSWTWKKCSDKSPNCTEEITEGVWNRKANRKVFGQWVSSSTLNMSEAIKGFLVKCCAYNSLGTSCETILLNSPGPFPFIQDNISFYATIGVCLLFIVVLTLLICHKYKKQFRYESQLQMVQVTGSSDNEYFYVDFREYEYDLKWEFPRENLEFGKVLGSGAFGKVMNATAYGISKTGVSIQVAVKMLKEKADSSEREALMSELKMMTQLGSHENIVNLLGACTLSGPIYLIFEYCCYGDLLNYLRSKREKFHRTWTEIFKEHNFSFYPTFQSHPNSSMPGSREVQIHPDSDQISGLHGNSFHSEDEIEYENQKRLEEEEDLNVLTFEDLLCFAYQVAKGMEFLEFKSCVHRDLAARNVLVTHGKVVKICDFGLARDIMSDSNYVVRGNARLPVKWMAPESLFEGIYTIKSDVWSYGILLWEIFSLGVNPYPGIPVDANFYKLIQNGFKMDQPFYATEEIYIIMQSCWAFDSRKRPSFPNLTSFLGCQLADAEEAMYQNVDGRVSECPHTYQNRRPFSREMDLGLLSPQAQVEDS

[4] = target: TPM3-NTRK1 (p-NTRK1 Y490) in KM-12 cells (Homo sapiens, UniProt P04629+P06753); test: Western blot of p-NTRK1 Y490 in KM-12 cells; settings: 2 hours, b12: 100, 500, 1000 nM
Chain of TPM3-NTRK1 (p-NTRK1 Y490) in KM-12 cells (P06753+P04629 fused): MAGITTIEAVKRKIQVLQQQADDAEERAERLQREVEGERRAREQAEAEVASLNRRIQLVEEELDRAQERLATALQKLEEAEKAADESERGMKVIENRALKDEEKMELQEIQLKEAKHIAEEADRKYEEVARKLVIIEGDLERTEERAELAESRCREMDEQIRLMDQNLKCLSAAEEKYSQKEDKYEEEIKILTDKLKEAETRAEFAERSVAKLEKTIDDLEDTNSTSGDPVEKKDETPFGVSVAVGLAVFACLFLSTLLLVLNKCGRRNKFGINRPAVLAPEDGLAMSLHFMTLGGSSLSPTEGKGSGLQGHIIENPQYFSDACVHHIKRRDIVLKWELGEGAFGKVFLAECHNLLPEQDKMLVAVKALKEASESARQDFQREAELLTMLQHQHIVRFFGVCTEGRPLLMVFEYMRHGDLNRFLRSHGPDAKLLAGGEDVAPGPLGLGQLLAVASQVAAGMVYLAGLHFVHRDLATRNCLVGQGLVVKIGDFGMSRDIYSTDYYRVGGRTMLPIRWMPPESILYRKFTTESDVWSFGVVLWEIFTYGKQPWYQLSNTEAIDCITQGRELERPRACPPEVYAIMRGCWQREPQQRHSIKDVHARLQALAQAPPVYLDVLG

[5] = 72 hours, CellTiter-Glo, 2% FBS

Chain of TEK (TIE2) (Q02763 23-1124): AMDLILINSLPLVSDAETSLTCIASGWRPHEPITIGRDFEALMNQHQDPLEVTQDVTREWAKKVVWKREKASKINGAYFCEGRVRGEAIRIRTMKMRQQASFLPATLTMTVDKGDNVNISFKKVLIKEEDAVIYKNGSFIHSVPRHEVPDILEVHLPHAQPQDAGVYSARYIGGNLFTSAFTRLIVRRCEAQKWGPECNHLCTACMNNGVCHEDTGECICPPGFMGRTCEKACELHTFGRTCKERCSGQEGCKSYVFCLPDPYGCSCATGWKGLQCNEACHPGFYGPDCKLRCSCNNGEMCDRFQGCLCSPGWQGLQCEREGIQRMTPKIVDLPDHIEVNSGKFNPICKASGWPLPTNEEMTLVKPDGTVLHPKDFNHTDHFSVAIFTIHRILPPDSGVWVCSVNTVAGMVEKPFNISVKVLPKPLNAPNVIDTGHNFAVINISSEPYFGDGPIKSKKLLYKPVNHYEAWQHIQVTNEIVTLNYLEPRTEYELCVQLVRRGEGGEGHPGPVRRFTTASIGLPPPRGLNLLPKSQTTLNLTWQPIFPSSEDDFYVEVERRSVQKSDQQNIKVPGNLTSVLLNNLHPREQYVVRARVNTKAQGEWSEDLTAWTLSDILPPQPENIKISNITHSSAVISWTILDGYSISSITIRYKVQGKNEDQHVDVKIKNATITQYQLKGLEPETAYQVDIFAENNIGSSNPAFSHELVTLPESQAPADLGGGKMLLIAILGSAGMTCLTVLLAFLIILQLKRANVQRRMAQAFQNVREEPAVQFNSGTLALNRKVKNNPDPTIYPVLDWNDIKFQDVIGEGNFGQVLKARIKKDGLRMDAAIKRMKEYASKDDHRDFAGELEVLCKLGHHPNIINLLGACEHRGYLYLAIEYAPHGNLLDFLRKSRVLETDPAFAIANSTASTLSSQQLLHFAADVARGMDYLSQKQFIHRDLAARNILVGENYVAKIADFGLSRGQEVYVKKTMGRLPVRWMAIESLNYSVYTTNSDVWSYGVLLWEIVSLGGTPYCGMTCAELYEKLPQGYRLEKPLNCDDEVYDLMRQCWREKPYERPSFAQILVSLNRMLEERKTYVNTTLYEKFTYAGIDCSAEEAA

% Inhibition at 0.2 μM, TEK (TIE2) (TEK (TIE2)) | % Inhibition at 0.2 μM, MET (MET) | % Inhibition at 0.2 μM, VEGFR2 (VEGFR2) | % Inhibition at 0.2 μM, MKNK2 (MKNK2) | % Inhibition at 0.2 μM, DDR2 (DDR2) | % Inhibition at 0.2 μM, FLT3 (FLT3) | p-NTRK1 inhibition (in words) [4] | Structure (SMILES) | IC50 (KM-12 cells [1]; [5]) | IC50 (KM-12 cells [2]) | p-eIF4E reduction (MKNK1/2 inhibition, in words) [3] | IC50 (KM-12 cells [1]; Homo sapiens, KM12, 72 h) | IC50 (KM-12 cells [2]; Homo sapiens, KM12) | Concentration giving near-complete inhibition of p-eIF4E ([3]; 3.9-1000 nM) | inhibition at 0.2 µM (MKNK2; read-out: % Inhibition at 0.2 μM, MKNK2)
100% | 100% | 72% | 98% | 94% | 96% | potent inhibition | Cc1ccc(C(=O)Nc2ccc(Oc3cc4cn[nH]c4cc3-c3cn[nH]c3)c(F)c2)c(=O)n1-c1ccc(F)cc1 [M1] | 0.016 µM | 0.079 µM | potent inhibition | – | – | – | –
100% | 93% | 43% | 95% | 99% | 97% | slightly less so | Cn1ncc2cc(Oc3ccc(NC(=O)c4ccc(CO)n(-c5ccc(F)cc5)c4=O)cc3F)c(-c3cn[nH]c3)cc21 [M2] | 0.102 µM | 0.206 µM | slightly less so | – | – | – | –

Structure (SMILES) | % Inhibition at 0.2 μM, TEK (TIE2) (TEK (TIE2)) | % Inhibition at 0.2 μM, MET (MET) | % Inhibition at 0.2 μM, VEGFR2 (VEGFR2) | % Inhibition at 0.2 μM, MKNK2 (MKNK2) | % Inhibition at 0.2 μM, DDR2 (DDR2) | % Inhibition at 0.2 μM, FLT3 (FLT3) | p-NTRK1 inhibition (in words) [4] | IC50 (KM-12 cells [1]; [5]) | IC50 (KM-12 cells [2]) | p-eIF4E reduction (MKNK1/2 inhibition, in words) [3] | IC50 (KM-12 cells [1]; Homo sapiens, KM12, 72 h) | IC50 (KM-12 cells [2]; Homo sapiens, KM12) | Concentration giving near-complete inhibition of p-eIF4E ([3]; 3.9-1000 nM) | inhibition at 0.2 µM (MKNK2; read-out: % Inhibition at 0.2 μM, MKNK2)
Cc1ccc(C(=O)Nc2ccc(Oc3cc4cnn(C)c4cc3-c3cn[nH]c3)c(F)c2)c(=O)n1-c1ccc(F)cc1 [Merestinib] | 99% | 98% | 63% | – | 97% | 95% | dose dependent decrease; also recorded: potent inhibition | – | – | potent inhibition | 0.01 µM | 0.045 µM | 62.5 nM | 98%
